How the values were obtained:
mice = assay: Acute toxicity after one-time intravenous administration in mice; type: in vivo; details: one-time i.v., observation period of 7 days, determined preliminarily
Procedure: After intravenous administration of the gadolinium complexes (I-X) in mice (n=3; rate of injection: 2 ml/min), the acute systemic compatibility (LD50) was determined preliminarily. In each case, several dosages with an observation period of 7 days were examined. The acute toxicities that are to be expected can be seen in Table 1.

[1] = Excretion after intravenous administration in rats (ICP-AES); type: in vivo; details: i.v., 50 μmol of total gadolinium/kg of body weight, 14 days after administration
Text: After intravenous administration of 50 μmol of total gadolinium/kg of body weight of the gadolinium complexes (I-X) in rats (n=3), the metal content was l determined in fractions up to 14 days after administration by means of atomic emission spectrometry (ICP-AES) in the excretion media of urine and feces, as well as in the body (the rest of the body).

[2] = Plasma kinetics after intravenous administration in rats (ICP-AES); type: in vivo; details: i.v., 50 μmol of total gadolinium/kg of body weight
Procedure: After intravenous administration of 50 μmol of total gadolinium/kg of body weight of the gadolinium complexes (I-X) in rats (n=3), blood samples were taken via a catheter in the common carotid artery at different points in time ([…] to 24 hours p.i.), the metal content was determined by means of atomic emission spectrometry (ICP-AES) and converted to plasma values via a conversion factor (0.625). The elimination half-life was calculated by means of special software (WinNonlin) from the plasma concentrations.

[3] = Relaxivity in water (NMR pulse spectrometer Minispec PC 20); type: physicochemical; details: 40° C., 0.47 T
Procedure: The T1 and T2 relaxation times of water and plasma (from cows) with increasing concentrations of the gadolinium complexes (I-XIII) contained therein were determined at 40° C. with use of an NMR pulse spectrometer (Minispec PC 20) at 0.47 T, and the relaxivity was determined.

arteriosclerotic plaque = assay: MRT visualization of arteriosclerotic plaque; type: in vivo, Watanabe rabbits (WHHL rabbits); details: WHHL rabbits, i.v. 50 μmol or 100 μmol of Gd/kg, 6 or 24 hours, T1-weighted IR-TFL; not in vascular wall of healthy control animals
Procedure: The pictures of FIG. 2 show MR images of the aorta 6 or 24 hours after intravenous administration of 50 μmol or 100 μmol of Gd/kg of body weight of gadolinium complex I (title substance of Example 1f), gadolinium complex IV (title substance of Example 11e), and gadolinium complex VIII (title substance of Example 16c) in Watanabe rabbits (WHHL rabbits; genetically-induced arteriosclerosis) and in control animals without arteriosclerosis (white New Zealands). […] The localization of the plaque, especially in the aortic arch as well as in the vascular passages, was confirmed by means of Sudan-3 staining. With this test, the suitability of the compounds according to the invention as markers for arteriosclerotic plaque could be shown.

[4] = test system: iliac lymph nodes and i.m.-implanted VX2 tumors; assay: MRT visualization of lymph node metastases and primary tumors in VX2-tumor-carrying rabbits; type: in vivo; details: rabbits with VX2 tumors, i.v. 50 μmol of Gd/kg
Procedure: The pictures of FIG. 1 show MR images of iliac lymph nodes precontrast as well as up to 24 hours after intravenous administration of 50 μmol of Gd/kg of body weight of gadolinium complex VIII (title substance of Example 16c) in rabbits with i.m.-implanted VX2 tumors. […] Zones where there was no signal rise within the lymph node were diagnosed as metastases and confirmed histologically (H/E staining of the lymph node sections).
At later times (24 hours p.i.), this enhancement also propagates toward the center of the tumor.

| Compound | LD50 Mouse (mice) | Body Retention 14 days [1] | Elimination Half-Life of Blood [2] | Gd Content of Blood 24 Hours p.i. [2] | Relaxivity R1(w) [3] | MR signal in the arteriosclerotic plaque (arteriosclerotic plaque) | MR signal in healthy lymph node tissue ([4]; T1-weighted turbo-spin-echo, 15 to 60 minutes p.i.) | MR enhancement in the primary tumor ([4]; immediately after administration, especially in the periphery) |
| --- | --- | --- | --- | --- | --- | --- | --- | --- |
| CC(C(=O)NCC(=O)NCCCC[C@H](NC(=O)CO[C@H]1O[C@H](CO)[C@@H](O)[C@H](O)[C@@H]1O)C(=O)NCCCC(F)(F)C(F)(F)C(F)(F)C(F)(F)C(F)(F)C(F)(F)F)N1CCN(CC(=O)[O-])CCN(CC(=O)[O-])CCN(CC(=O)[O-])CC1.[Gd+3] (stereo partly drawn) [Gadolinium complex II, Gadolinium complex of 6-N-[1,4,7-tris-(carboxylatomethyl)-1,4,7,10-tetraazacyclododecane-10-N-(pentanoyl-3-aza-4-oxo-5-methyl-5-yl)]-2-N-(1-O-α-d-carbonylmethylmannopyranose)-L-lysine-[(1H,1H,2H,2H-perfluorooctyl)-methyl]-amide] | 10 mmol/kg | 0.0% | 0.9 hour^ hours | 0.0% | R1(w): 5.7 l/(mmol * s) |  |  |  |
| COCCN(CCOCCC(F)(F)C(F)(F)C(F)(F)C(F)(F)C(F)(F)C(F)(F)C(F)(F)C(F)(F)F)C(=O)[C@H](CCCCNC(=O)CNC(=O)C(C)N1CCN(CC(=O)[O-])CCN(CC(=O)[O-])CCN(CC(=O)[O-])CC1)NC(=O)CO[C@H]1O[C@H](CO)[C@@H](O)[C@H](O)[C@@H]1O.[Gd+3] (stereo partly drawn) [Gadolinium complex IV, Gadolinium complex of 6-N-[1,4,7-tris-(carboxylatomethyl)-1,4,7,10-tetraazacyclododecane-10-N-(pentanoyl-3-aza-4-oxo-5-methyl-5-yl)]-2-N-(1-O-α-d-carbonylmethylmannopyranose)-L-lysine-N-(2-methoxyethyl)-N-(1H,1H,2H,2H,4H,4H,5H,5H-3-oxa-perfluorotridecyl)-amide] | ≧15 mmol/kg | 2.6% | 5.3 h | 1.8% | R1(w): 16.6 l/(mmol * s) | strong signal rise |  |  |
| COCCN(CCC(F)(F)C(F)(F)C(F)(F)C(F)(F)C(F)(F)C(F)(F)C(F)(F)C(F)(F)F)C(=O)[C@H](CCCCNC(=O)CNC(=O)C(C)N1CCN(CC(=O)[O-])CCN(CC(=O)[O-])CCN(CC(=O)[O-])CC1)NC(=O)CO[C@H]1O[C@H](CO)[C@@H](O)[C@H](O)[C@@H]1O.[Gd+3] (stereo partly drawn) [Gadolinium complex V, Gadolinium complex of 6-N-[1,4,7-tris-(carboxylatomethyl)-1,4,7,10-tetraazacyclododecane-10-N-(pentanoyl-3-aza-4-oxo-5-methyl-5-yl)]-2-N-(1-O-α-d-carbonylmethylmannopyranose)-L-lysine-N-(2-methoxyethyl)-N-(1H,1H,2H,2H-perfluorodecyl)-amide] | 15 mmol/kg | 0.0% | 6.7 h | 2.1% | R1(w): 18.3 l/(mmol * s) |  |  |  |
| CC(C(=O)NCC(=O)NCCCC[C@H](NC(=O)COCC(CO)(CO)CO)C(=O)NCCCC(F)(F)C(F)(F)C(F)(F)C(F)(F)C(F)(F)C(F)(F)C(F)(F)C(F)(F)F)N1CCN(CC(=O)[O-])CCN(CC(=O)[O-])CCN(CC(=O)[O-])CC1.[Gd+3] (stereo partly drawn) [Gadolinium complex VI, Gadolinium complex of 6-N-[1,4,7-tris-(carboxylatomethyl)-1,4,7,10-tetraazacyclododecane-10-N-(pentanoyl-3-aza-4-oxo-5-methyl-5-yl)]-2-N-[(3-hydroxy-2,2-dihydroxymethylpropoxy)-acetyl]-L-lysine-[(1H,1H,2H,2H-perfluorodecyl)-methyl]-amide] | >10 mmol/kg | 0.0% | 7.7 h | 2.6% | R1(w): 16.9 l/(mmol * s) |  |  |  |
| CC(C(=O)NCC(=O)N[C@@H](CCCCNC(=O)CO[C@H]1O[C@H](CO)[C@@H](O)[C@H](O)[C@@H]1O)C(=O)N(C)CCC(F)(F)C(F)(F)C(F)(F)C(F)(F)C(F)(F)C(F)(F)C(F)(F)C(F)(F)F)N1CCN(CC(=O)[O-])CCN(CC(=O)[O-])CCN(CC(=O)[O-])CC1.[Gd+3] (stereo partly drawn) [Gadolinium complex VIII, Gadolinium complex of 2-N-[1,4,7-tris-(carboxylatomethyl)-1,4,7,10-tetraazacyclododecane-10-N-(pentanoyl-3-aza-4-oxo-5-methyl-5-yl)]-6-N-(1-O-α-d-carbonylmethylmannopyranose)-L-lysine-[(1H,1H,2H,2H-perfluorodecyl)-methyl]-amide] | ≧10 mmol/kg | 0.0% | 4.3 h | 0.5% | R1(w): 20.6 l/(mmol * s) | strong signal rise | strong signal rise | clear enhancement |
| CC(C(=O)NCC(=O)NCCCC[C@H](NC(=O)CO[C@H]1O[C@H](CO)[C@@H](O)[C@H](O)[C@@H]1O)C(=O)NCCCOCCC(F)(F)C(F)(F)C(F)(F)C(F)(F)C(F)(F)C(F)(F)C(F)(F)C(F)(F)F)N1CCN(CC(=O)[O-])CCN(CC(=O)[O-])CCN(CC(=O)[O-])CC1.[Gd+3] (stereo partly drawn) [Gadolinium complex III, Gadolinium complex of 6-N-[1,4,7-tris-(carboxylatomethyl)-1,4,7,10-tetraazacyclododecane-10-N-(pentanoyl-3-aza-4-oxo-5-methyl-5-yl)]-2-N-(1-O-α-d-carbonylmethylmannopyranose)-L-lysine-[(1H,1H,2H,2H,4H,4H,5H,5H-3-oxa-perfluorotridecyl)-methyl]-amide] | ≧10 mmol/kg | 1.5% | 6.2 h | 1.6% | R1(w): 17.8 l/(mmol * s) |  |  |  |
| CC(C(=O)NCC(=O)N[C@@H](CCCCNC(=O)CO)C(=O)NCCCC(F)(F)C(F)(F)C(F)(F)C(F)(F)C(F)(F)C(F)(F)C(F)(F)C(F)(F)F)N1CCN(CC(=O)[O-])CCN(CC(=O)[O-])CCN(CC(=O)[O-])CC1.[Gd+3] (stereo partly drawn) [Gadolinium complex IX, Gadolinium complex of 2-N-[1,4,7-tris-(carboxylatomethyl)-1,4,7,10-tetraazacyclododecane-10-N-(pentanoyl-3-aza-4-oxo-5-methyl-5-yl)]-6-N-(2-hydroxyacetyl)-L-lysine-[(1H,1H,2H,2H-perfluorodecyl)-methyl]-amide] | >10 mmol/kg | 0.2% | 4.3 h | 0.5% | R1(w): 18.8 l/(mmol * s) |  |  |  |
| COC[C@H]1O[C@H](OCC(=O)NC(CCCCNC(=O)CNC(=O)C(C)N2CCN(CC(=O)[O-])CCN(CC(=O)[O-])CCN(CC(=O)[O-])CC2)C(=O)N(C)CCC(F)(F)C(F)(F)C(F)(F)C(F)(F)C(F)(F)C(F)(F)C(F)(F)C(F)(F)F)[C@@H](OC)[C@@H](OC)[C@@H]1OC.[Gd+3] (stereo partly drawn) [Gadolinium complex VII, Gadolinium complex of 6-N-[1,4,7-tris-(carboxylatomethyl)-1,4,7,10-tetraazacyclododecane-10-N-(pentanoyl-3-aza-4-oxo-5-methyl-5-yl)]-2-N-[1-O-α-d-carbonylmethyl-(2,3,4,6-tetra-O-methyl)mannopyranose]-L-lysine-[(1H,1H,2H,2H-perfluorodecyl)-methyl]-amide] | ≦15 mmol/kg | 5.4% | 5.4 h | 1.2% | R1(w): 14.7 l/(mmol * s) |  |  |  |

Reference: patent publication US20070020183A1, “Perfluoroalkyl-containing complexes, process for their production as well as their use” (priority 2005, published 2007)
